This assay is described as follows: Daily food intake with subcutaneous steroid supplementation (Example 3). The settings on record: group C (oral corn oil vehicle, no extract), steroid 5 mg/kg/day sc on days 4 and 5. Format: in vivo, rat. How it is done:
Male Wistar rats weighing about 250 g (2 groups designated as group C, control; and E, experimental treatment; 24 individuals per group) were kept as described in the Example 1 from day 1 to day 6 of the experiment. On days 1 through 4, a botanical extract from a plant Asclepias incarnata enriched with pregnane derivatives according to Formula (I) was administered orally in doses of 100 mg/kg body weight/day in 1 ml of corn oil (Sigma #C8267). As a negative control (vehicle), animals were administered orally with 1 ml of corn oil alone. On day 4 of the experiment both groups of animals C and E were further subdivided into 6 groups containing 4 animals each, designated C, control; PREG, pregnenolone; PROG, progesterone; DEOX, deoxycorticosterone; CORT, corticosterone; and DHEA, dehydroepiandrosterone. On day 4 and day 5, animals from these subgroups received a subcutaneous injection of 5 mg/kg body weight/day of the respective steroid compound in 5% DMSO and corn oil; total volume of 0.1 ml. The control animals in group C subgroup C and group E subgroup C received a subcutaneous injection of vehicle (5% DMSO in corn oil) only. On days 4 and 6 food intake was measured. […]

With `C[C@]12C[C@H](O)[C@H]3[C@@H](CCC4=CC(=O)CC[C@@]43C)[C@@H]1CC[C@@H]2C(=O)CO` [CORT, corticosterone], the “Daily food intake, Day 6” value is on record as “no direct effect on food intake alone”.

The record behind these values is patent US20080188447A1, “Glucocorticoid-lowering composition” (priority 2007, published 2008).
